Measurements published in US20050215562A1, “Methods for treating protein aggregation disorders” (priority 2003, published 2005).

Tests used:
NAC peptide [1] = biological target: T1, NAC peptide (Homo sapiens, UniProt P37840); assay: Electron microscopy (EM) analysis of NAC fiber formation in the fibrillogenesis assay; format: biochemical; details: for EM Score: amount of fibers compared to NAC alone (100% fibers), 10 frames of a 300-mesh grid
T1 construct: a 35 amino acid peptide corresponding to residues 61 to 95 of the α-synuclein protein; made in house; host or cells: chemical solid-phase peptide synthesis (Fmoc), not expressed
Description: (§1) Fibrillogenesis assays were employed to identify test compounds that inhibit NAC's ability to assemble into fibers. Following removal of HFIP by evaporation under N2 gas, 20 μM NAC peptide is incubated in the assay buffer (0.02M Tris, 0.15 M NaCl, 0.005% NaN3, 100 uM EDTA) at 37° C. in a Perkin-Elmer HTS 7000 plus microplate reader with shaking for 1 minute every twenty minutes. The presence of fibers can be monitored by three different methods.
(§2) The following assays were set up in clear polystyrene 96 well microplates by combining 125 μL of 40 μM NAC peptide with 125 μL of 200 μM test compound in 0.02M Tris, 0.15 M NaCl, 0.005% NaN3, […]. The microplates were sealed with a plastic sheet and incubated at 37° C. in a Perkin-Elmer HTS 7000 microplate reader with shaking for 1 minute, every 20 minutes. • Thioflavin T Analysis. To perform this assay 5 μM Thioflavin T is added to the NAC assembly conditions described above. The fluorescence is measured at 430 excitation/485 emission every twenty minutes with a Perkin-Elmer HTS microplate reader for the duration of the assay. […] This assay allows for the identification of compounds that can inhibit this increase in fluorescence upon incubation. • Turbidity Analysis. Alternatively, NAC peptide that has been incubated with test compounds in the appropriate assembly conditions can be analyzed by reading the absorbance at 405 nm to follow the turbidity of the solution which is also an indication of the formation of aggregates. • Circular Dichroism (CD) Analysis. […] This assay allows for the identification of compounds that can prevent NAC from adopting a β-sheet/β-turn conformation upon incubation. • At the appropriate time point, during the incubation, the test solutions were transferred to 0.1-cm path length quartz cuvettes and scanned by CD spectroscopy between 190 and 260 nm, with a resolution of 0.1 nm and a bandwidth of 1 nm using a Jasco J-715 spectropolarimeter at 37° C. […] At the time point at which CD scans are performed a 3 μl aliquot is removed from the sample, spotted onto a Formvar grid and then negatively stained with 4% uranyl acetate. The grids were examined for the presence of fibrils and amorphous aggregates using a JOEL 2000 transmission electron microscope at a 25,000 × magnification. This assay can be used to confirm the absence of fibers in the presence of compounds which inhibit NAC assembly by ThT and CD. The final results were obtained by averaging 10 complete sectors.
Analysis by Electron Microscopy: The fibrillogenesis assays performed for CD analysis were also spotted for EM. The electron micrographs are visually examined and a score is assigned as follows. Briefly, 10 representative frames from a 300-mesh grid are analyzed and given a score representing the amount of fibers formed in the sample as compared to a micrograph with NAC alone without a test compound (100% fibers). A score was assigned based on this analysis on a scale from 0% to 100% fibers: (−) indicates an observation of less than about 25% fibers; (+) indicates about 25% fibers; (++) about 50% fibers; (+++) indicates about 75% fibers; and (++++) 100% fibers. […]

NAC peptide [2] = biological target: T1, NAC peptide; assay: Binding of compounds to NAC peptide by electrospray mass spectrometry; details: area of bound NAC-compound complex peaks divided by area of unbound NAC peaks; 5:1 compound:NAC, pH 7.4, 6.6% EtOH
Description: The ability of the compounds of the present invention to bind to NAC peptide in aqueous solution was evaluated. The binding ability correlates to the intensities of the peptide-compound complex peaks observed by the Electrospray Mass Spectrum. Millipore distilled deionized water was used to prepare all aqueous solutions. For pH determination a Beckman (Φ36 pH meter fitted with a Corning Semi-Micro Combination pH Electrode was employed.
The optimal cone voltage was determined to be 20V.
Mass spectrometry: Mass spectrometric analysis was performed using a Waters ZQ 4000 mass spectrometer equipped with a Waters 2795 sample manager. MassLynx 4.0 (earlier by MassLynx 3.5) was used for data processing and analysis. Test compounds were mixed with disaggregated peptides in aqueous media (6.6% EtOH) at a 5:1 ratio (20 μM NAC: 100 μM of test compound or 40 μM NAC : 200 μM of test compound). The pH of the mixture was adjusted to 7.4 (±0.2) using 0.1% NaOH (3-5 μL). Periodically, NAC peptide solution at 20 μM or 40 μM was also prepared in the same fashion and run as control. The spectra were obtained by introducing the solutions to the electrospray source by direct infusion using a syringe pump at a flow rate of 25 μl/min, and scanning from 100 to 2100 Da in the positive mode. The scan time was 0.9 sec per scan with an inter-scan delay of 0.1 sec and the run time was 5 min for each sample. All the mass spectra were sum of 300 scans. The desolvation and source temperature was 70° C. and the cone and capillary voltage were maintained at 20 V and 3.2 kV respectively.
The total area under the peaks for the bound NAC-compound complex divided by total area under the peaks for unbound NAC was determined for each compound tested.

NAC peptide [3] = biological target: T1, NAC peptide; assay: Circular dichroism (CD) analysis of NAC peptide conformation after incubation with test compounds (fibrillogenesis assay); format: biochemical; design: key to CD Result (NAC conformation observed): Random Coil: signifies that the NAC in the sample was observed to have been maintained in its original random coil conformation indicating that the compound coincubated with NAC is active; signifies that the compound was not able to prevent the shift from random coil to β-sheet; β-sheet/β-turn: signifies that the compound was not able to prevent the shift from random coil to β-sheet; Transition: signifies that the NAC was observed to be in the process of converting from random coil to β-sheet indicating that the compound was able to slow down the conformational change and indicates activity; details: for CD Result (NAC conformation observed): 125 μL of 40 μM NAC peptide with 125 μL of 200 μM test compound, pH 7.4, 37° C., conformations over repeated trials; for Activity (CD): active if it prevents the transition to β-turn/β-sheet in 50% or more of the trials; for Activity: active trials / trials: number of CD trials in which transition to β-turn/β-sheet was prevented, over trials run
Description: 2 mM Solutions were prepared in TBSA buffer (Tris 0.02 M, NaCl 0.15 M, NaN3 0.005%, pH 7.4) and stored at 4° C. For the assays, compounds were diluted to the desired concentrations in TBSAE buffer (Tris 0.02 M, NaCl 0.15 M, NaN3 0.005%, EDTA 100 μM, pH 7.4) and combined with the NAC peptides.
as §1, §2
For compounds that have been tested multiple times, a compound is classified as active if it prevents the transition to β-turn/β-sheet in 50% or more of the trials.

SMILES | Activity (EM) (NAC peptide [1]) | EM Score (NAC peptide [1]) | Binding Strength (NAC peptide [2]) | CD Result (NAC conformation observed) (NAC peptide [3]) | Activity (CD) (NAC peptide [3]) | Activity: active trials / trials (NAC peptide [3])
NCCCCS(=O)(=O)O [drawing 63] | Yes | AA+ | – | – | – | –
NCCOS(=O)(=O)O [compound 3] | – | – | − (None; when the total binding is between 30% and 0%) | β- turn/βsheet | No | 0/2
CCCCCCCCCCCCCCCCS(C)(C)CCCS(=O)(=O)O [compound 11] | – | – | ++ (Moderate; when the total binding is between 120% and 70%) | Random Coil | Coil | 4/4
CC[N+](CC)(CC)CCCS(=O)(=O)[O-] [compound 16] | – | – | Indeterminant | Random Coil | Yes | 3/3
NCCCCS(=O)(=O)O [compound 7] | – | – | ++ (Moderate; when the total binding is between 120% and 70%) | β- turn/βsheet Random coil Transition | Yes | 2/4
O=S(=O)(O)CCCN1CCN(Cc2ccccc2)CC1 [compound 12] | – | – | ++ (Moderate; when the total binding is between 120% and 70%) | β-turn Transition | No | ⅓
CC[N+](CC)(CC)CCCS(=O)(=O)[O-] [drawing 62] | Yes | AA+ | – | – | – | –
CCCCCCCCCCCCCCS(C)(C)CCCS(=O)(=O)O [compound 10] | – | – | + (Weak; when the total binding is between 70% and 30%) | Random Coil | Yes | 5/5
CC(=O)C1(c2ccccc2)CCN(CCCS(=O)(=O)O)CC1 [compound 15] | – | – | +++ (Strong; when the total binding is 120% and higher) | β-sheet/β- turn Random Coil | No | ¼
NCCCCS(=O)(=O)O [compound 6] | – | – | +++ (Strong; when the total binding is 120% and higher) | β-turn transition | Yes | ½
O=S(=O)(O)OCCCOS(=O)(=O)O [compound 2] | – | – | − (None; when the total binding is between 30% and 0%) | Random Coil TRansition | Yes | 2/2
O=S(=O)(O)CCC[N+]12CCC(CC1)CC2 [drawing 65] | Yes | + ((+) indicates about 25% fibers) | – | – | – | –
O=S(=O)(O)CCCCS(=O)(=O)O [compound 1] | – | – | − (None; when the total binding is between 30% and 0%) | Random Coil β-sheet | Yes | ½
O=S(=O)(O)CCCC[N+]12CCC(CC1)CC2 [compound 30] | – | – | – | Random Coil β-sheet/β- turn | Yes | 2/4
O=S(=O)(O)CCCN1CCc2c([nH]c3ccccc23)C1 [compound 13] | – | – | +++ (Strong; when the total binding is 120% and higher) | Random coil Transition | Yes | 3/3
O=S(=O)([O-])CC(O)C[N+]12CCC(CC1)CC2 (centres unmarked) [compound 31] | – | – | – | β-sheet/β- turn α-helix | No | ⅓
CCCCCCCCCCCCS(C)(C)CCCS(C)(=O)=O [compound 9] | – | – | − (None; when the total binding is between 30% and 0%) | Random Coil | Yes | 4/4
O=C1NCCCC[C@@H]1NCCCS(=O)(=O)O [compound 18] | – | – | – | β-sheet/β- turn | No | 0/2
NCCCOS(=O)(=O)O [compound 4] | – | – | ++ (Moderate; when the total binding is between 120% and 70%) | β-turn | No | 0/2
O=S(=O)(O)CCCNC(Cc1ccccc1)c1ccccc1 (centres unmarked) [compound 22] | – | – | – | Transition β-turn | No | ⅔
NCCS(=O)(=O)O [compound 5] | – | – | + (Weak; when the total binding is between 70% and 30%) | β-sheet | No | 0/2
